{
  "source": "patent US8569264B2",
  "about": "“Antibacterial 4,5-substituted aminoglycoside analogs having multiple substituents” (ISIS Pharmaceuticals, Inc., priority 2005, dated 2013)",
  "key": {"E. Coli": {"system": "E. Coli", "assay": "MIC, E. Coli", "format": "cell-based", "conditions": "for MIC: Escherichia coli", "experimental": "(§1) The MIC assays are carried out in 150 μL volume in duplicate in 96-well clear flat-bottom plates. The bacterial suspension from an overnight culture growth in appropriate medium is added to a solution of test compound in 4% DMSO in water. Final bacterial inoculum is approximately 10^5-10^6 CFU/well. […] Both ampicillin and tetracycline are used as antibiotic-positive controls in each screening assay for S. pyogenes, E. coli imp-, E. coli, S. aureus, E. faecalis, K. pneumoniae and P. vulgaris. Ciprofloxacin is used as an antibiotic positive control in each screening assay for P. aeruginosa."}, "S. Aureus": {"system": "S. Aureus", "assay": "MIC, S. Aureus", "format": "cell-based", "conditions": "for MIC: Staphylococcus aureus", "experimental": "as §1"}, "[1]": {"target": "18S ribosomal subunit RNA target", "assay": "Mass spectrometry based binding assay (FTICR), 18S", "experimental": "(§2) In a typical experiment, 10 μL of an aqueous solution containing 100 mM ammonium acetate buffer, 2.5 or 5 μM of each RNA, and 33% isopropyl alcohol (to aid ion desolvation) was prepared with different concentrations of each ligand or ligand mixture Samples were introduced into the electrospray ionization source (negative ionization mode) at 1 μL/min and ions were stored for 1 sec in an RF-only hexapole following desolvation. The abundances were integrated from the respective ions for free RNA and the ligand-RNA complex. The primary (1:1 RNA:ligand) and secondary (1:2 complex, if observed). […] The peak ratios were measured at each concentration, then a plot of complex/free RNA versus concentration of ligand added was fitted to a second (or higher) order binding polynomial to determine the KD."}, "[2]": {"target": "16S ribosomal subunit RNA target", "assay": "Mass spectrometry based binding assay (FTICR), 16S", "experimental": "as §2, with “[…],” for “2.5 or 5 μM of each RNA,”"}, "[3]": {"system": "E. coli S30 bacterial extract (pBestLuc firefly luciferase reporter)", "assay": "Coupled bacterial transcription/translation assay", "format": "biochemical", "conditions": "read-out: Trans/Trans IC50", "experimental": "The DNA template, pBestLuc™ (Promega), is a plasmid containing a reporter gene for firefly luciferase fused to a strong tac promoter and ribosome binding site. Messenger RNA from 1 μg pBestLuc is transcribed and translated in E. coli S30 bacterial extract in the presence or absence of test compound. Compounds are tested in a black 96 well microtiter plate with an assay volume of 35 μL. […] The transcription/translation reaction is incubated for 35 minutes at 37° C. followed by detection of functional luciferase with the addition of 30 μL LucLite™ (Packard). Light output is quantitated on a Packard TopCount."}, "[4]": {"system": "Staphylococcus aureus (Smith Strain ATCC 13709)", "assay": "Staphylococcus aureus mouse protection assay", "format": "in vivo, mice", "conditions": "Staph Conc. 10^6, 10% Mucin, the 13th table", "experimental": "Two of the novel aminoglycoside compounds of the invention were examined for their anitbacterial activity against staphylococcus aureus. Mice were fed with autoclaved commercial food pellets and sterile water ad libitum. Animals were inoculated intraperitoneally with 0.5 mL/mouse of the indicated concentration of S. aureus (ATCC 13709) containing 10% mucin. There were 10 mice in each treatment group and compounds were administered subcutaneously one and 3 hour after infection. Compounds 15a (R4═R5═CH3) and 15j (R4═H, R5═(CH2)2C6H5)) were used at 75 mg/kg, 37.5 mg/kg, 18.8 mg/kg, 9.4 mg/kg, 4.7 mg/kg, 2.3 mg/kg, 1.17 mg/kg and 0.5 mg/kg. Amakacin, paromomycin and neomycin were used as the positive controls at concentrations of 2 mg/kg, 1 mg/kg and 0.5 mg/kg.\nTest compound was administered as an aqueous buffer solution (phosphate buffered saline (PBS), pH=7.4)."}},
  "note": "pIC50, pKd: −log10 of the molar value. Several values for one entry are separate records, joined by “and”; a condition that tells them apart may be missing. Equal entries are not always repeated. Where two headings read alike, the source gives them in different places.",
  "data": [
    {"compound": "NC[C@@H]1O[C@H](O[C@H]2[C@@H](OCCOCCCC3CCCCC3)[C@H](O[C@@H]3[C@@H](O)[C@H](N)C[C@H](N)[C@H]3O[C@H]3O[C@H](CO)[C@@H](O)[C@H](O)[C@H]3N)O[C@@H]2CO)[C@H](N)[C@@H](O)[C@@H]1O", "note": "[Compound 12b]", "values": [
      {"measurement": "MIC", "setting": "E. Coli; Example 107", "result": "20 to 40", "unit": "µM"},
      {"measurement": "MIC", "setting": "S. Aureus; Example 107", "result": "5 to 10", "unit": "µM"}
    ]},
    {"compound": "NC[C@@H]1O[C@H](O[C@H]2[C@@H](OCCCc3ccccc3)[C@H](O[C@@H]3[C@@H](O)[C@H](N)C[C@H](N)[C@H]3O[C@H]3O[C@H](CO)[C@@H](O)[C@H](O)[C@H]3N)O[C@@H]2CO)[C@H](N)[C@@H](O)[C@@H]1O", "note": "[Compound 14b]", "values": [
      {"measurement": "MIC", "setting": "E. Coli; Example 107", "result": "20 to 40", "unit": "µM"},
      {"measurement": "MIC", "setting": "S. Aureus; Example 107", "result": "3 to 5", "unit": "µM"}
    ]},
    {"compound": "NCCCCNCC1OC(OC2C(N)CC(N)C(O)C2OC2OC(CO)C(OC3OC(CN)C(O)C(O)C3N)C2O)C(N)C(O)C1O", "note": "(stereo not drawn) [Compound 15f]", "values": [
      {"measurement": "MIC E. Coli.", "setting": "E. Coli; Example 108", "result": "2.5-5^ uM"},
      {"measurement": "MIC S. Aureus", "setting": "S. Aureus; Example 108", "result": "10 to 20", "unit": "µM"},
      {"measurement": "pKd", "setting": "[1]; Example 108", "result": 5.22},
      {"measurement": "pKd", "setting": "[2]; Example 108", "result": 5.20}
    ]},
    {"compound": "Cc1ccc(CCNCC2OC(OC3C(N)CC(N)C(O)C3OC3OC(CO)C(OC4OC(CN)C(O)C(O)C4N)C3O)C(N)C(O)C2O)cc1", "note": "(stereo not drawn) [Compound 15g]", "values": [
      {"measurement": "MIC E. Coli.", "setting": "E. Coli; Example 109", "result": "2.5-5^ uM"},
      {"measurement": "MIC S. Aureus", "setting": "S. Aureus; Example 109", "result": "0.6 to 1.2", "unit": "µM"}
    ]},
    {"compound": "CN(CCc1ccccc1)CC1OC(OC2C(N)CC(N)C(O)C2OC2OC(CO)C(OC3OC(CN)C(O)C(O)C3N)C2O)C(N)C(O)C1O", "note": "(stereo not drawn) [Compound 15k]", "values": [
      {"measurement": "MIC E. Coli.", "setting": "E. Coli; Example 109", "result": "2.5-5^ uM"},
      {"measurement": "MIC S. Aureus", "setting": "S. Aureus; Example 109", "result": "0.3 to 0.6", "unit": "µM"}
    ]},
    {"compound": "NCC1OC(OC2C(CO)OC(OC3C(O)C(N)CC(N)C3OC3OC(CNCCc4ccc(C5CCCCC5)cc4)C(O)C(O)C3N)C2O)C(N)C(O)C1O", "note": "(stereo not drawn) [Compound 15m]", "values": [
      {"measurement": "MIC E. Coli.", "setting": "E. Coli; Example 109", "result": "1.3 to 2.5", "unit": "µM"},
      {"measurement": "MIC S. Aureus", "setting": "S. Aureus; Example 109", "result": "0.3 to 0.6", "unit": "µM"}
    ]},
    {"compound": "COc1ccccc1CCNCC1OC(OC2C(N)CC(N)C(O)C2OC2OC(CO)C(OC3OC(CN)C(O)C(O)C3N)C2O)C(N)C(O)C1O", "note": "(stereo not drawn) [Compound 15n]", "values": [
      {"measurement": "MIC S. Aureus", "setting": "S. Aureus; Example 109", "result": "0.2 to 0.3 µM and 0.3 to 0.6 µM"}
    ]},
    {"compound": "NCC1OC(OC2C(CO)OC(OC3C(O)C(N)CC(N)C3OC3OC(CNCCc4ccc(C(F)(F)F)cc4)C(O)C(O)C3N)C2O)C(N)C(O)C1O", "note": "(stereo not drawn) [Compound 15q]", "values": [
      {"measurement": "MIC E. Coli.", "setting": "E. Coli; Example 109", "result": "1.3 to 2.5", "unit": "µM"},
      {"measurement": "MIC S. Aureus", "setting": "S. Aureus; Example 109", "result": "0.3 to 0.6", "unit": "µM"}
    ]},
    {"compound": "COc1ccc(CCNCC2OC(OC3C(N)CC(N)C(O)C3OC3OC(CO)C(OC4OC(CN)C(O)C(O)C4N)C3O)C(N)C(O)C2O)cc1", "note": "(stereo not drawn) [Compound 15r]", "values": [
      {"measurement": "MIC E. Coli.", "setting": "E. Coli; Example 109", "result": "1.3 to 2.5", "unit": "µM"},
      {"measurement": "MIC S. Aureus", "setting": "S. Aureus; Example 109", "result": "0.3 to 0.6", "unit": "µM"}
    ]},
    {"compound": "NCC1OC(OC2C(CO)OC(OC3C(O)C(N)CC(N)C3OC3OC(CN4CCC5CCCCC54)C(O)C(O)C3N)C2O)C(N)C(O)C1O", "note": "(stereo not drawn) [Compound 15s]", "values": [
      {"measurement": "MIC E. Coli.", "setting": "E. Coli; Example 109", "result": "1.3 to 2.5", "unit": "µM"},
      {"measurement": "MIC S. Aureus", "setting": "S. Aureus; Example 109", "result": "0.3 to 0.6", "unit": "µM"}
    ]},
    {"compound": "NC1CC(N)C(OC2OC(CO)C(O)C(O)C2N)C(OC2OC(CO)C(O)C2OCCNCCc2ccccc2)C1O", "note": "(stereo not drawn) [Compound 30c]", "values": [
      {"measurement": "MIC E. Coli.", "setting": "E. Coli; Example 107", "result": ">100", "unit": "µM"},
      {"measurement": "MIC S. Aureus", "setting": "S. Aureus; Example 107", "result": "12 to 25", "unit": "µM"}
    ]},
    {"compound": "NCC1OC(OC2C(CF)OC(OC3C(O)C(N)CC(N)C3OC3OC(CO)C(O)C(O)C3N)C2O)C(N)C(O)C1O", "note": "(stereo not drawn) [Compound 61, 5″-deoxy-5″-fluoro paromomycin]", "values": [
      {"measurement": "MIC", "setting": "E. Coli; Example 105", "result": "> 50", "unit": "µM"},
      {"measurement": "MIC", "setting": "S. Aureus; Example 105", "result": "12 to 25", "unit": "µM"},
      {"measurement": "pIC50", "setting": "[3]; Example 105", "result": 6.52},
      {"measurement": "pKd", "setting": "[2]; FTICR mass spectrometry, run at 100 nM RNA, Example 105", "result": 5.96}
    ]},
    {"compound": "NC[C@@H]1O[C@H](O[C@H]2[C@@H](O)[C@H](O[C@@H]3[C@@H](O)[C@H](N)C[C@H](N)[C@H]3O[C@H]3O[C@H](CN)[C@@H](O)[C@H](O)[C@H]3N)O[C@@H]2CO)[C@H](N)[C@@H](O)[C@@H]1O", "note": "[Neomycin B, reference compound]", "values": [
      {"measurement": "pIC50", "setting": "[3]; Example 106", "result": 6.70},
      {"measurement": "pKd", "setting": "[1]; Example 106", "result": 6.52},
      {"measurement": "pKd", "setting": "[2]; Example 106", "result": 7.40}
    ]},
    {"compound": "neomycin [reference compound]", "values": [
      {"measurement": "# Dead mice/Total mice in group", "setting": "[4]; 0.5 mg/kg subcutaneously", "result": "7/10"},
      {"measurement": "# Dead mice/Total mice in group", "setting": "[4]; 1 mg/kg subcutaneously", "result": "10/10"},
      {"measurement": "# Dead mice/Total mice in group", "setting": "[4]; 2 mg/kg subcutaneously", "result": "4/10"}
    ]}
  ]
}
